These results are taken from patent US20250042925A1, “Improved Compositions and Methods for Targeting Mitochondria in Cancer Cells” (The Medical College of Wisconsin, Inc., priority 2021, published 2025).

The test system of data set [1] is pancreatic, breast, and colon cancers. The following applies: cited from earlier work.
Data set [2] deals with KPC1242 murine pancreatic cancer. The data set is described as follows: Tumor growth in KPC1242 engrafted mice. It counts as in vivo. The note with it: 1 mg pCF3-MMe, 5 days on and 2 days off, from 17 days after engraftment. How it is done: FIGS. 6A-6I show pCF3-MMe inhibits tumor growth with enhanced biosafety relative to MMe. C57BL/6J mice were treated with 1 mg MMe, 1 mg pCF3-MMe, 1 mg MMe, 250 μg MMe, 100 μg MMe, 50 μg MMe, or 25 μg MMe for 6 hours (FIG. 6A) or 5 days (FIG. 6D). Kaplan-Meier survival curve of mice treated for 6 hours (FIG. 6B) or 5 days (FIG. 5E), n=3-5. Numbers of mice surviving over time after a single injection (FIG. 6C) or 5 repeated doses (FIG. 6F). Significance was determined using a Mantel-Cox test (*, p<0.05; **, p<0.01). KPC1242 murine pancreatic cancer engrafted mice were treated with 1 mg pCF3-MMe or vehicle 5 days on and 2 days off (FIG. 6G). […] Tumor volume was measured ex vivo from vehicle and pCF3-MMe-treated mice (FIG. 6I). […] Significant differences were determined by Student's t-test (*, p<0.05).
Given the strong safety shown from a single injection, further studies were conducted to determine if mice tolerated repeated injection using our published treatment schedule by injecting non-tumor-bearing mice daily for 5 consecutive days with doses ranging from as little as 25 μg/mouse to as much as 1 mg/mouse 20 (FIG. 6D). […] Taken together, trifluoromethylation of TPP^+ improves the reproducible detection, quantitative measurement, and safety profile of TPP^+-conjugated compounds while retaining potent anti-tumor effects in vivo. […]

The nature of data set [3]: Quantitative 19F-NMR of compound persistence in tumor, blood and liver. It counts as in vivo, mice. Here is the method: To validate ^19F-NMR as a viable detection approach, the persistence of pCF3-MMe in tumors was analyzed. KPC1242 engrafted mice were administered 1 mg/mouse pCF3-MMe starting 12 days after implantation. […] We next designed a quantitative NMR approach to measure the in vivo persistence of pCF3-MMe. First, serial dilutions of known concentrations of pCF3-MMe were prepared, and the intensity of the NMR peaks at a set scan number (n=64) was used to create a standard curve. Next, a one-phase decay least-squares fit equation was generated to calculate the amount of pCF3-MMe at each time point using the standardized scan number.
Cells (1×10^7 cells/10 cm dish) were allowed to adhere overnight and then treated with varying concentrations of mitochondria-targeted compounds. Compounds were extracted using multiple methods and optimized for detection and quantification: A) Cells or tumors were placed in a dry ice ethanol bath followed by 80% v/v MeOH in water. Cells were placed on a dry ice ethanol bath on an orbital shaker for 20 minutes, and then cells were collected and centrifuged at 10,000×g; B) Post-treatment cells were lifted with TrypLE (Gibco, Cat #11558856) and centrifuged, then compound was extracted from the cells or tumors with 9:1 CHCl3:H2O, CH2Cl2, or 1:1 MeCN:H2O. Following extraction, solvents were evaporated using a Biotage V-10 Touch (Uppsala, Sweden), and before NMR acquisition, samples were resuspended in an equal volume of DMSO-d6.
^19F 1D-NMR spectra were collected on a Bruker Avance-III 500 MHz NMR spectrometer equipped with a 1H&^19F/13C/15N-TCI cryoprobe. […] To evaluate pCF3-MMe concentrations in biological samples, a standard curve was generated using pCF3-MMe concentrations of 0.25, 0.50, 0.75, 1.0, 1.25, and 1.5 mg/mL, and the resulting peak intensities were analyzed by linear regression. […]
All animal studies were approved by the Institutional Animal Care and Use Committees at the Medical College of Wisconsin. […] Tumors were excised, and volume (length×width×depth=mm^3) was measured post-mortem using calipers. […]

Each structure is given as a SMILES string. Entries after “also recorded” stand apart in the source; their conditions may differ.

Take `N=C(N)NC(=N)NCCCCCCCCCC[P+](c1ccccc1)(c1ccccc1)c1ccccc1.[Br-]` [MMe, 10-[(carbamimidamidomethanimidoyl)amino]decyl-triphenylphosphonium bromide, reference compound]: the “efficacy compared to metformin” value in data set [1] was 100-1000 fold.

On to `N=C(N)NC(=N)NCCCCCCCCCC[P+](c1ccc(C(F)(F)F)cc1)(c1ccc(C(F)(F)F)cc1)c1ccc(C(F)(F)F)cc1.[Br-]` [pCF3-MMe, (10-(3-carbamimidoylguanidino)decyl)tris(4-(trifluoromethyl)phenyl)phosphonium bromide], for which, in data set [2], the “tumor size and volume” value was “significantly decreased tumor size and volume”. In addition, the “detection in the blood and liver” value is on record as “undetectable; also recorded: not detected” in data set [3] (2 hours after injection, 1 mg) and “barely detectable above the signal-to-noise ratio” in data set [3] (6 hours after injection). Moreover, the “levels within the tumors” value in data set [3] (24 hours after injection, 1 mg/mouse) was “measurable levels”.
